Measurements taken from ChEMBL document CHEMBL1201862, “PubChem BioAssay data set” (2004).
Each block holds one compound with its values, some of them ahead of it. Activity calls are given as the source filed them.

Legend:
[1] = target: T1, Cytochrome P450 1A2 (Homo sapiens, UniProt P05177);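 also: PubChem cytochrome P450 panel assay, CYP1A2 panel member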
T1 sequence (P05177 whole entry): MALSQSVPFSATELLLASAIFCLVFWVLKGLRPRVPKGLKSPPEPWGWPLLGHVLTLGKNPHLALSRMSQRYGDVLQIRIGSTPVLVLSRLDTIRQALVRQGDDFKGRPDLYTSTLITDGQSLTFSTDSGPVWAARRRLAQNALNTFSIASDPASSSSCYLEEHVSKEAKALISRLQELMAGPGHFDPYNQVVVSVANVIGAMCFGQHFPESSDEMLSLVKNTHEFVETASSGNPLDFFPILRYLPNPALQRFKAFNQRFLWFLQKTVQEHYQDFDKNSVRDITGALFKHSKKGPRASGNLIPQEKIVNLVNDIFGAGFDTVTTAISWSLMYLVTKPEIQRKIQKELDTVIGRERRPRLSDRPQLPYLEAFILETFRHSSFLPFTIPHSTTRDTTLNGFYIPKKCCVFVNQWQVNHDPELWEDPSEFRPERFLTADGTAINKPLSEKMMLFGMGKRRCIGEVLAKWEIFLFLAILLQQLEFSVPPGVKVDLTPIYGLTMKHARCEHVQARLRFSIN

[2] = target: Cytochrome P450 3A4 (Homo sapiens, UniProt P08684);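 also: CYP3A4 tested as one member of a cytochrome P450 panel screen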
Cytochrome P450 3A4, sequence (P08684 whole entry): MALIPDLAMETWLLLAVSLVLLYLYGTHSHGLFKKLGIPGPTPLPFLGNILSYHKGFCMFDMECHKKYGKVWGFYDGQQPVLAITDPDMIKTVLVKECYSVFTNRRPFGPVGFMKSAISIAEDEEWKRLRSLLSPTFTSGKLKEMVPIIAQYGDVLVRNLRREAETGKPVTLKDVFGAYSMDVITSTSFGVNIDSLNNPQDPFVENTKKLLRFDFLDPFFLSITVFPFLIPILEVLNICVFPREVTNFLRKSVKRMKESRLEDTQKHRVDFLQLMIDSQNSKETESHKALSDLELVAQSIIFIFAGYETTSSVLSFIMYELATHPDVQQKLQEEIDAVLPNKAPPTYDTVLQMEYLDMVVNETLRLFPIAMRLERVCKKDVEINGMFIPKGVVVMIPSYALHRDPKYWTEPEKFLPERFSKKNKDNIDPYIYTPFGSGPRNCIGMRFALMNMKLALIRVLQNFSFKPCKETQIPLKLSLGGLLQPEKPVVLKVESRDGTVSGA

[3] = target: Peroxisome proliferator-activated receptor gamma/Nuclear receptor corepressor 2 (Homo sapiens, UniProt P37231+Q9Y618); assay: Counterscreen for NR2E3 inverse agonists: TR-FRET-based biochemical high throughput dose response assay to identify inverse agonists of the interaction between peroxisome proliferator-activated receptor gamma (PPARg) and nuclear receptor co-repressor 2 (NCOR2).; type: functional
[4] = target: Photoreceptor-specific nuclear receptor (Homo sapiens, UniProt Q9Y5X4); assay: NR2E3 inverse agonists, dose response, biochemical, TR-FRET (AID 463256); type: functional
Photoreceptor-specific nuclear receptor, sequence (Q9Y5X4 whole entry): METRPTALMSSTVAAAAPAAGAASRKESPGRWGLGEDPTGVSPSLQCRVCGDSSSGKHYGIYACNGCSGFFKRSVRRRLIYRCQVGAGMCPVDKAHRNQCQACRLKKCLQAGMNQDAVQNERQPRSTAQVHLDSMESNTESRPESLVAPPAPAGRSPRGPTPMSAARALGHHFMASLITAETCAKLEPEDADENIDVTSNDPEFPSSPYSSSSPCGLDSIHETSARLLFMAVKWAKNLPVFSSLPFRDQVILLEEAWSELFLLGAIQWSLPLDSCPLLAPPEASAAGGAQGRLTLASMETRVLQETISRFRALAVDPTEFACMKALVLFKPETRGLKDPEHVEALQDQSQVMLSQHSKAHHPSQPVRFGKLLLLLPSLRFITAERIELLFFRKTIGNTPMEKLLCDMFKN

[5] = target: Sphingosine 1-phosphate receptor 2 (Homo sapiens, UniProt O95136); assay: Dose Response Cell Based Assay for Antagonists of the S1P2 Receptor. [Related pubchem assays: 856, 736 ]; type: functional
Sphingosine 1-phosphate receptor 2, sequence (O95136 whole entry): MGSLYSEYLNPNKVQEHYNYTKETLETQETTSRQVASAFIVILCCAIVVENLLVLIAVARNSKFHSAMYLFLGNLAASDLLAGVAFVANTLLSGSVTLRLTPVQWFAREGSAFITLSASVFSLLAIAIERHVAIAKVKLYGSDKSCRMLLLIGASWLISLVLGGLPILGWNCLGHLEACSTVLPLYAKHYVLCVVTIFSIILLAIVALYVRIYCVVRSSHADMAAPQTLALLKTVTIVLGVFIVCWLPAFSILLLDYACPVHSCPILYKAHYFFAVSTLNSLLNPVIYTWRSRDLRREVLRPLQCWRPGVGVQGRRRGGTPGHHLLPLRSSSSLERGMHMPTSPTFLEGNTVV

[6] = target: T2, Calpain-2 catalytic subunit (Sus scrofa, UniProt P43367); assay: pig calpain II inhibitor potency, dose response, biochemical, fluorogenic peptide substrate (AID 1420); type: functional
T2 sequence (P43367 whole entry): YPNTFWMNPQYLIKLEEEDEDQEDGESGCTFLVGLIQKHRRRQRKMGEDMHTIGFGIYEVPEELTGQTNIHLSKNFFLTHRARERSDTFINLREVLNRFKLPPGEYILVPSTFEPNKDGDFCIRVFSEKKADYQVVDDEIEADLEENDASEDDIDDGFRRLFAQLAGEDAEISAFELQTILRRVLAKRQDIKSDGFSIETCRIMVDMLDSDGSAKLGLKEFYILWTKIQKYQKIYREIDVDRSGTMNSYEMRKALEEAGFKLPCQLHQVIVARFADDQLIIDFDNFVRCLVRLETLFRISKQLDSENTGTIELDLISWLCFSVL

[7] = target: Diphosphomevalonate decarboxylase (Streptococcus pneumoniae serotype 2 (strain D39 / NCTC 7466), UniProt Q9FD53); assay: S. pneumoniae DPM-DC inhibition retest, confirmation, biochemical, cuvette format, coupled NADH fluorescence (AID 1028); type: functional
Diphosphomevalonate decarboxylase, sequence (Q9FD53 whole entry, the tested form may be a part): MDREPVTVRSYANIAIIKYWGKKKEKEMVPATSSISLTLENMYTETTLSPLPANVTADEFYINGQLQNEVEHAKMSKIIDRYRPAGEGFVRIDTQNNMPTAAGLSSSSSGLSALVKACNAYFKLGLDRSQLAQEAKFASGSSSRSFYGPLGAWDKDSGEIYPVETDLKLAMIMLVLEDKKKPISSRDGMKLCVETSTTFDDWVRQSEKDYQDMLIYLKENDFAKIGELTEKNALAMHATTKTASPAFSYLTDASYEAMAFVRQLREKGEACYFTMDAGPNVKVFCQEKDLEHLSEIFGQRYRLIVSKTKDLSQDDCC

[8] = target: T3, Fibrinogen beta chain (Homo sapiens, UniProt P02675); assay: Fluorescence polarization-based biochemical high throughput dose response assay to identify inhibitors that disrupt the binding of a cyclic peptide (Tn7) to the fibrin proteolytic product D-Dimer and fragment E complex [DD(E )].
T3 sequence (P02675 whole entry, the tested form may be a part): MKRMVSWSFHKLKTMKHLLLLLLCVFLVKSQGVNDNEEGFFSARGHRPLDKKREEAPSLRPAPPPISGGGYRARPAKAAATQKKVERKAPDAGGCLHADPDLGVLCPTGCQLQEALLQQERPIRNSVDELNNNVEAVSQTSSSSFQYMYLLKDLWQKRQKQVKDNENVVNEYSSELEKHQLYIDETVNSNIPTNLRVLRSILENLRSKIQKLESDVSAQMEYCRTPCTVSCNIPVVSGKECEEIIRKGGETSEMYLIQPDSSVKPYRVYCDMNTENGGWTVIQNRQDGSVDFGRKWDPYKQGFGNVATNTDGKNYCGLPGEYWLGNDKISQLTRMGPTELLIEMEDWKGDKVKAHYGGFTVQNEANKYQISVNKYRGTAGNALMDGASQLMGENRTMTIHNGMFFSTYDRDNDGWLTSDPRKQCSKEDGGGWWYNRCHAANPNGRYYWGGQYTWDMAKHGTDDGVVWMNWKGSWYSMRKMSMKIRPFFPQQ

[9] = target: T3, Fibrinogen beta chain; assay: Fluorescence polarization-based biochemical high throughput dose response assay to identify inhibitors that disrupt the binding of a cyclic peptide (Tn6) to the fibrin proteolytic product D-Dimer and fragment E complex [DD(E )].
[10] = target: T4, Oxysterols receptor LXR-beta (Homo sapiens, UniProt P55055); assay: LXR agonists, Gal4 luciferase reporter, dose response, counter-screen for ssDAF-12 agonist project, cell-based, luminescence, HEK293, S. stercoralis campaign (AID 720737); type: functional; details: read-out: IC50 (the source's name)
T4 sequence (P55055 whole entry): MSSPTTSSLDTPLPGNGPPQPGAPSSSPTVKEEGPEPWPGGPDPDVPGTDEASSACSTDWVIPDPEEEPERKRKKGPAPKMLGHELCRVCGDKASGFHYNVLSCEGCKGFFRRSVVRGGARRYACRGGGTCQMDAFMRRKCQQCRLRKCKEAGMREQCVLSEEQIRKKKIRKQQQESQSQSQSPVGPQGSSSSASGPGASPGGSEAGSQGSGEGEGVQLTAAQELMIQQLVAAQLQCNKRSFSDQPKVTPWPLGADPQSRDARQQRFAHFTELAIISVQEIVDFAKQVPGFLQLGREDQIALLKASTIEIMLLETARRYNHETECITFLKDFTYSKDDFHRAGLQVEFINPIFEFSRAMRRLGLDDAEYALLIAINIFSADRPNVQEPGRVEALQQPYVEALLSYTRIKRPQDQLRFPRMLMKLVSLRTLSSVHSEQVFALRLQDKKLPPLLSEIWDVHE

[11] = Luminescence-based cell-based high throughput dose response assay to identify activators of the DAF-12 from the parasite S. stercoralis (ssDAF-12).; type: functional
[12] = growth inhibition of intracellular T. cruzi, dose response, cell-based, plate reader, dry powder samples (AID 651845); type: functional
[13] = T. cruzi growth inhibition in host cells, dose response, cell-based, plate reader, dry powder, set 2 (AID 652275); type: functional
[14] = T. cruzi intracellular amastigote growth inhibition, dose response, imaging, CA-I/72 strain, bovine embryo skeletal muscle, dry powder (AID 651885); type: functional, cell-based

Compound: CCN(CC)C(=O)c1ccc(-n2sc3ccccc3c2=O)cc1
- IC50 [7]: 19.2 µM (active)

Compound: Oc1ccc(N=Nc2ccccc2)o1
- EC50 [10]: > 67.6 µM (inactive)
- IC50 [11]: > 67.6 µM (inactive)

Compound: CC(C)N1C[C@H](C)[C@@H](CN(C)Cc2ccc(Oc3ccccc3)cc2)Oc2c(NC(=O)c3ccncc3)cccc2C1=O
- AC50 [12]: 0.00119 µM (active)
- AC50 [13]: 0.00111 µM (active)
- IC50 [14]: 0.00163 µM (active)

Further lines, results first:

- AC50 [1]: 15.8 µM (inconclusive)
- AC50 [2]: 1 µM (inconclusive)
- IC50 [3]: 7.42 µM (active)
- IC50 [4]: 5.92 µM (active)
Compound: COc1ccc(N2C(=O)c3ccccc3NC2c2ccc(OC)c(CSc3ccccn3)c2)cc1 (centres undefined)

- IC50 [5]: > 30 µM (not active)
- IC50 [6]: 14.3 µM (not active)
Compound: COC(=O)c1sc2cc(C(F)(F)F)cnc2c1-c1cccnc1

- IC50 [8]: > 27.8 µM (inactive)
- IC50 [9]: > 83.3 µM (inactive)
Compound: CCOC(=O)N1CCN(Cc2nc(-c3ccc(C)cc3)no2)CC1
